# In US6120765A, “Urokinase plasminogen activator fragments” (Shiseido Co. Ltd., priority 1993, dated 2000):
# Where no end group is shown, it is not given here.
# Tested on: Primary human keratinocytes
# Assay: Mitogenesis assay (3H-thymidine incorporation, DNA synthesis) in keratinocytes
# Format: cell-based
# Settings: for 3H-thymidine uptake (mitogenesis) of Lys23-substituted 9-mers versus controls: keratinocytes, negative control no peptide, positive control K-GFD
# Description: FIG. 1 is a bar graph which represents the effect of various uPA peptides on DNA synthesis in keratinocytes. Various concentrations of GFD peptides were tested in order to compare the mitogenic activity. After 24 h incubation with a peptide and 3H-thymidine, incorporated radioactivity was measured as described herein. Five concentrations were used for each peptide. For a given peptide the uppermost bar of the five represents 0.1 μM, the next lower bar 0.33 μM, the next lower bar 1 μM, the next lower bar 3.3 μM, and the lowest bar, 10 μM.
# Mitogenesis Assay The effect of a peptide on mitogenesis was determined as a function of DNA synthesis as follows. Peptides (in phosphate buffered saline (PBS)) were added to the monolayers (grown as described herein) to a final concentration of either 0.1 μM, 0.33 μM, 1.0 μM, 3.3 μM, or 10 μM. 5 μL of ^3 H-thymidine (10 μCi/ml; Amersham, Arlington Heights, Ill.) in 150 μL KGM was added to the cultures concurrent with the peptides, and cells were harvested and lysed after 24 hours at 37° C. in distilled H2 O using a Tomtec cell harvester, and fixed with 70% ethanol. The lysed cells were then transferred to a nylon filter (Amersham, Arlington Heights, Ill.), Beta plate scintillation fluid was added (LKB), and radioactivity was measured using a Wallac 1205 beta plate counter. Control samples, incubated in the presence of phosphate-buffered saline (PBS) and ^3 H-thymidine gave control levels of radioactivity of approximately 400 cpm.
# Cell Culture Primary human keratinocytes (Clonetics, Calif.) were cultured in 96-well plates (Corning, N.Y.) in serum-free medium (KGM medium, Clonetics) to 70-80% confluency on a monolayer culture at 37° C. in 5% C02.
Sequence,3H-thymidine uptake (mitogenesis) of Lys23-substituted 9-mers versus controls,"concentration giving maximum level of mitogenic activity (24 h, tested 0.1-10 μM) [µM]",also measured
SNRYFSDIH [R-GFD],greatly increased,,
TCVSNKYFSNIH [12-mer],,,"effect on keratinocyte stimulation (at other concentrations than 1 μM (0.1, 0.33, 3.3, 10 μM)): little, if any, effect; mitogenic activity (3H-thymidine incorporation) (only at 1 μM, 24 h): demonstrated mitogenic activity"
SNAYFSDIH [A-GFD],little different from negative control cells,,
"SNKYFSNIH [9-mer, K-GFD printed in b183 with Asp instead of Asn]",increased uptake as compared with untreated cells,1,"lowest concentration effective in stimulating mitogenesis (24 h, tested 0.1-10 μM): 0.33 µM"
SNEYFSDIH [E-GFD],inhibited mitogenesis,,
TCVSNKYFSNIHWCN [15-mer],,3.3,
